Data on four molecules can be found in patent publication US5411942A, “Peptide derivative, pharmaceutical preparation containing it and method for treatment of glaucoma” (Carlbiotech Ltd. A/S, priority 1989, dated 1995).

Series [1] deals with anterior sclera. The conditions noted are these: Ussing chamber, glutathione bicarbonate Ringer's solution.
Series [2] concerns rats. The series is described as follows: Intravenous tolerance in rats. The conditions noted are these: doses as high as 40 mg/kg intravenously. The class given is in vivo.
For series [3], the system named is rabbit's eye. The conditions noted are these: 5% solution as eye drops in rabbit's eye, even after treatment over a month.
In series [4] the test system is Salmonella strains. To be noted: Ames test on Salmonella strains. On the technique in general: The Ames test detects mutagens through reverse mutation in bacteria.
Series [5] concerns blood pressure. The conditions noted are these: e.g. at 10 mg/kg in rats.
The test system of series [6] is mice. The series is described as follows: Intravenous tolerance in mice. The class given is in vivo. The conditions noted are these: doses as high as 40 mg/kg intravenously.
Series [7] relates to rats. The series can be described thus: Subcutaneous toxicity in rats, also prolonged for a month. In kind it is in vivo. To be noted: subcutaneous administration of similar doses in rats, also prolonged treatment for a month.
For series [8], the system named is antibodies in serum samples. To be noted: serum of rats treated subcutaneously for one month in large doses.
For series [9], the system named is experimentally hypertensive rabbit eye. The series is described as follows: Antagonizing effect on stress induced intraocular pressure in the rabbit eye, treatment simultaneous with stress. The conditions noted are these: for Change in pressure / Pressure after 5 1/5 / Initial Pressure: Example 9; for Change in pressure / Pressure after 5 1/5: 11 stress units, peptides as drops of 0.5% solution 3× daily; for Initial Pressure: baseline. In kind it is in vivo. Here is the method:
(§1) The main feature of this clinical model is a stress induced elevation of the intraocular pressure in the rabbit eye above the initial and normal value. The stress is exerted, i.e. applied, in the form of measuring the pressure (at 12 hour intervals) with the help of a SHIOTZ-Tonometer, which is loaded with 7.5 grams.
(§2) Adult rabbits of random breed and sex in groups of n=3-10 were employed. Weight 2,5-3,0 kg. The peptide was a freeze-dried powder, and was applied to the rabbit eye as a powder, or as drops, dissolved in 0.9% NaCl aqueous solution. Positive control was the commercial glaucoma drugs, either timololor pilocarpin, and negative control was 0.9% NaCl solution in water.
20 mg peptide was dissolved in 0.6 ml 0.9% NaCl aqueous solution and applied in aliquots of 60 μl four times daily over a period of 2.5 days.
The treatment was started at the beginning of the experiment simultaneously with stress units. Five stress units were applied at 12 hour intervals.
Stress units were applied at 12 hour intervals over a period of 51/2 days, i.e. 11 stress units. The peptides were applied 3× daily over this period as drops of a 0.5% solution in 0.9% NaCl in aqueous solutions.
Stress units were applied at 12 hour intervals over a period of 51/2 days, i.e. 11 stress units. The peptides were applied 3× daily over this period as drops of a 1.0% solution in 0.9% NaCl in aqueous solution.

Series [10] concerns stress induced ocular hypertensive rabbits. The series is described as follows: Stress induced ocular hypertension in the rabbit eye, treatment started after pressure elevation. The conditions noted are these: for IOP lowering efficiency in relation to Timolol / Initial Pressure (Unstressed) / Pressure after 5 days of stress (Treatment starts) / Pressure after 10 days of stress (5 days of treatment) / Change in IOP: Example 6; for Initial Pressure (Unstressed): baseline before stress; for Pressure after 5 days of stress (Treatment starts) / Pressure after 5 days: before treatment; for Pressure after 10 days of stress (5 days of treatment): stress continued; for Change in IOP: day 10 versus day 5; for Pressure after 5 days / Initial Pressure / Pressure after 10 days (5 days of treatment): Example 8; for Pressure after 5 days: after 5 day stress induction; for Initial Pressure: baseline; for Pressure after 10 days (5 days of treatment): 2 drops four times for 5 days. The class given is in vivo. The method, then:
as §1, §2
on stress induced ocular hypertensive rabbits. […] The amount of peptide per treatment was thus 3.75 mg which corresponds on a molar basis to the amount of Timolol used per treatment.
The local treatment was started on day 5 of glaucoma induction (i.e. afer 10 stress units), and the stress, that is the trauma, was continued during the treatment with the peptide.
A 1% and 0.1% solution of the peptide in 0.9% NaCl aqueous solution was applied four times (2 drops each time) for 5 days after an initial 5 day stress induction period. (Stress units at 12 hour intervals).

Series [11] relates to water load induced hypertension in the rabbit eye. The series can be described thus: Water load model, intraocular pressure in rabbits' eyes. The class given is in vivo. To be noted: single dose; for AUC: area under Δ IOP-time curve. The method, then: The findings of intraocular pressure lowering effects in the stress induced rabbit model has been confirmed and further studied by using another elevated eye pressure rabbit model. In this model, the widely applied water load model, elevation of the intraocular pressure is achieved by injecting a large volume of sterile water intraperitoneally into the rabbits. Following onset of eye drop treatment in one eye while the other eye is treated with saline placebo, the intraocular pressure of both eyes is then measured at various intervals and the pressure difference between the eyes is taken as an expression of the pharmaceutical effect. In these experiments, pilocarpine, a well-known pressure lowering cholinergic agent, was used as positive control.
The studies utilized a "water load" animal model.
Thirty minutes before drug solution installation, rabbits were injected intraperitonally with 60 ml/kg of sterile distilled water for injection (30° C.) spiked with an antibiotic mixture (Sigma P9032).
At time zero, 50 μl of a drug solution was instilled to one eye and an equal volume of a saline solution was instilled to the other eye. The intraocular pressure in each eye was monitored at the time points indicated. The change in intraocular pressure (IOP) at each time point is computed by subtracting the IOP in the dosed eye from that in the undosed eye.
From these plots was assessed the maximal IOP effect, the time to reach this and the time for returning to a zero or insignificant level of intraocular pressure lowering effect. These figures may be taken as a measure of potency and duration of effect. As a measure of the full pharmaceutical effect at various dose levels was taken a sum figure of the area under the curves (AUC).
A 0.5% solution of the peptides or 2.6% pilocarpine nitrate (positive control) in 0.9% NaCl aqueous solution was applied in one eye and 0.9% Nacl, also acting as negative control in the other eye, an IOP was measured in both eyes for 3 hours.
A 0.25%, 0.5% of 1.0% solution of the peptides in 0.9% aqueous NaCl solution was applied in one eye and 0.9% NaCl to the other eye and IOP was measured in both eyes for 3 hours.

For series [12], the system named is freshly excised bulbar conjunctiva. The conditions noted are these: Ussing chamber, glutathione bicarbonate Ringer's solution.
The test system of series [13] is cultured bovine trabecular meshwork cells. The series is described as follows: Cultured bovine trabecular meshwork cells incubated with peptide. The class given is cell-based. From the text:
The mechanism, or mechanisms, by way of which the peptides according to the invention work, is so far not known in detail and may be of hitherto unknown types or related to some known mechanisms. With the apparent lack of β-blocking effects, other known mechanisms could be effects on the enzyme carbo-anhydrase or effects on aqueous humour outflow. Some indications of mechanisms of the latter type have been found in in vitro studies. […] The significant decrease in glycosamine uptake with normal synthesis of glycoproteins like fibronectin is taken to indicate an influence on the formation of glycosamino glycans, an important parameter in the regulation of outflow of aqueous humour from the eye.

Where [14] appears, read: cell cultures incubated with the peptide.
[15] abbreviates: 0.5% peptide, 3.75 mg powder 4× daily.
The mark [16] stands for this setting: Example 11, 2.6% pilocarpine nitrate.

Peptide text beside a SMILES is read from it. * marks the point of attachment. Acm = CC(=O)NC*

Regarding `CC(=O)NCSC[C@H](NC(=O)[C@@H](NC(=O)CNC(=O)[C@H](CC(C)C)NC(=O)[C@@H](N)CC(N)=O)C(C)C)C(N)=O` [AsnLeuGlyValCys(Acm)NH2, H-Asn-Leu-Gly-Val-Cys(Acm)-NH2] (H-NLGVC(Acm)-NH2), the penetration through tissue result in series [1] is “found to penetrate scleral tissue”. Also, the “tolerance of intravenous doses” value in series [2] is recorded as “easily tolerated”. For the same molecule, in [3], the anaesthetic effects result is given as “neither anaesthetic effects” and the irritant effects result was “nor irritant effects”. Also, the mutagenicity classification entry in [4] is “non-mutagenic”. For the same molecule, the “effect on blood pressure” value in series [5] is recorded as “no effect on blood pressure”. Besides, in series [6], the “tolerance of intravenous doses” value is “easily tolerated”. Besides, the “toxic or adverse effects” value in series [7] is “no toxic or adverse effects”. Besides, in [8], the “detection of antibodies by ELISA” value is “not been possible to detect such antibodies”.
In the case of `CC(C)(C)NC[C@H](O)COc1nsnc1N1CCOCC1` [Timolol, reference compound], in series [9], the Change in pressure entry is “+1 mm Hg”, the “Pressure after 5 1/5” value is listed as 16 mm Hg and the “Initial Pressure” value was found to be 15 mm Hg. Also, in series [10] (0.25% Timolol), the “IOP lowering efficiency in relation to Timolol” value is reported as 100%, the “Pressure after 10 days of stress (5 days of treatment)” value was 19.5 mm Hg and the “Change in IOP” value is -10.5 mm Hg. For the same molecule, in series [10] (0.25% Timolol group), the “Initial Pressure (Unstressed)” value is 19.0 mm Hg and the “Pressure after 5 days of stress (Treatment starts)” value was determined as 30.0 mm Hg.
Consider “H-Asn-Gly-Gly-Val-Cys(Acm)-NH2 (H-NGGVC(Acm)-NH2; also: acetate salt) [AsnGlyGlyValCys(Acm)NH2]”, for which, in series [11] (Example 11, 0.5% solution), the Duration of effect worked out at 120 min and the “Time to max. response” value was 30 min. Also, in series [11] (Example 11, 0.5% solution, IOP followed 3 hours), the “Max. response Δ IOP” value is -5.0 mm Hg. Besides, in series [11] (Example 12, Conc. 0.25%), the Duration of effect was found to be 80 min, the “Max resp. Δ IOP” value is recorded as -2.0 mm Hg, the “Time to max. resp.” value is 30 min and the AUC is on record as 160 mm Hg×min. Moreover, in series [11] (Example 12, Conc. 0.5%), the Duration of effect worked out at 120 min, the “Max resp. Δ IOP” value is on record as -5.0 mm Hg, the “Time to max. resp.” value is 30 min and the AUC amounted to 360 mm Hg×min. In series [11] (Example 12, Conc. 1.0%), the Duration of effect is 120 min, the “Max resp. Δ IOP” value is on record as -4.0 mm Hg, the “Time to max. resp.” value was determined as 30 min and the AUC stood at 410 mm Hg×min. Further, in series [1], the penetration through tissue entry is recorded as “found to penetrate both tissues”. The penetration through tissue result in series [12] was “found to penetrate both tissues”. In series [9] (Example 7, 20 mg in 0.6 ml saline, 60 μl four times daily for 2.5 days, five stress units), the “Change in IOP After 21/2 days, Absolute” value is -4.7 mm/Hg. For the same molecule, in series [9] (Example 7, relative to 0.9% saline), the “Change in IOP After 21/2 days, Relative to Control” value is on record as -9.2 mm/Hg. Also, in series [9], the Change in pressure came to 0 mm Hg, the “Pressure after 5 1/5” value is on record as 14 mm Hg and the “Initial Pressure” value was 14 mm Hg. For the same molecule, in series [13] (setting [14]), the “cell growth and ultrastructure” value was “normal growth and ultrastructure”; the “effect on collagen and fibronectin synthesis” value is “no effect”. The uptake of glycosamines entry in series [13] (cultured bovine trabecular meshwork cells) was “marked and significant decrease”. In [10] (0.5% peptide), the “IOP lowering efficiency in relation to Timolol” value is recorded as 150% and the “Change in IOP” value was -15.5 mm Hg. In series [10] (0.5% peptide group), the “Pressure after 5 days of stress (Treatment starts)” value was 32.0 mm Hg. Also, in series [10] (setting [15]), the “Pressure after 10 days of stress (5 days of treatment)” value is reported as 16.5 mm Hg and the “Initial Pressure (Unstressed)” value is reported as 19.0 mm Hg. In series [10] (0.1% peptide group), the “Pressure after 5 days” value was 28 mm Hg and the “Initial Pressure” value is recorded as 18 mm Hg. Besides, the “Pressure after 10 days (5 days of treatment)” value in [10] (0.1% solution) is 15.5 mm Hg. Moreover, in [10] (1% peptide group), the “Pressure after 5 days” value came out at 32 mm Hg and the “Initial Pressure” value is 21 mm Hg. Further, the “Pressure after 10 days (5 days of treatment)” value in series [10] (1% solution) stood at 18 mm Hg.
Take `CC[C@@H]1C(=O)OC[C@@H]1Cc1cncn1C` [pilocarpine nitrate, reference compound]: in series [11] (setting [16]), the Duration of effect worked out at 120 min, the “Max. response Δ IOP” value is reported as -5.0 mm Hg and the “Time to max. response” value came to 30 min.
